Data published in ChEMBL document CHEMBL5257106, “Design, synthesis, and biological evaluation of novel HDAC inhibitors with a 3-(benzazol-2-yl)quinoxaline framework” (Bioorg Med Chem Lett, 2023).
Active and inactive are the calls of the source. No cut-off for these calls is given here.

Experiments:
HCT-116 [1] = test: Induction of apoptosis in human HCT-116 cells assessed as viable cells at 1 uM incubated for 24 hrs by Annexin V-FITC/PI staining based flow cytometry analysis (reference value: 93.2%); type: functional; details: Homo sapiens, HCT-116, read-out: Activity
[2] = biological target: T1, DNA topoisomerase 1 (Homo sapiens) (UniProt P11387); test: Inhibition of topoisomerase 1 (unknown origin) mediated DNA relaxation assessed as delay in pBR322 DNA migration by gel electrophoresis assay
T1 sequence (whole entry): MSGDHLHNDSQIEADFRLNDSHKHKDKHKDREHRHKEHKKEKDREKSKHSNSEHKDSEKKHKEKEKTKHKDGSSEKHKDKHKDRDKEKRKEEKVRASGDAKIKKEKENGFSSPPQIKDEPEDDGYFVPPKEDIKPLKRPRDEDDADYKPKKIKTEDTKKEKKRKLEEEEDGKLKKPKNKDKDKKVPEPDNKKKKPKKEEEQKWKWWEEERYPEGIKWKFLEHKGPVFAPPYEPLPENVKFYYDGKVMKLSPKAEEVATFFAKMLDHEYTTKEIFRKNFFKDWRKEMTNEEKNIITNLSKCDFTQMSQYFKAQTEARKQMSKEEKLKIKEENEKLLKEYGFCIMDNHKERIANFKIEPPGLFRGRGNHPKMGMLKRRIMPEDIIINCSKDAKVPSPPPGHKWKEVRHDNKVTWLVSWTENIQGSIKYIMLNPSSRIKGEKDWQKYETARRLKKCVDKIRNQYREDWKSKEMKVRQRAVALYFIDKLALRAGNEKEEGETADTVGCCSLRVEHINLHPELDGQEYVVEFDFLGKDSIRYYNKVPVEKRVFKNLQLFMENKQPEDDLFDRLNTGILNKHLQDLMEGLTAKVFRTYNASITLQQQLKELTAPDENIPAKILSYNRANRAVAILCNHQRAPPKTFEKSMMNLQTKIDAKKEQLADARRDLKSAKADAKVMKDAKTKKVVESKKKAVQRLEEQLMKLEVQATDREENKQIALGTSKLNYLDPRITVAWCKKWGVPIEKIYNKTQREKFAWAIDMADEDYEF

HCT-116 [3] = test: Induction of cell cycle arrest in human HCT-116 assessed as S phase cells at 1 uM incubated for 48 hrs by flow cytometric analysis (reference value: 12.79%); type: functional
HCT-116 [4] = test: Induction of cell cycle arrest in human HCT-116 assessed as S phase cells at 0.5 uM incubated for 48 hrs by flow cytometric analysis (reference value: 12.79%); type: functional
RS4-11 = test: Potency index, ratio of SAHA IC50 to test compound IC50 for antiproliferative activity against human RS4-11 cells assessed as inhibition of cell growth by MTT assay; type: functional
HCT-116 [5] = test: Inhibition of cell migration in human HCT-116 cells measured upto 12 hrs by wound healing assay; type: functional, cell-based; details: dose 0.5-1 µM
HCT-116 [6] = test: Induction of apoptosis in human HCT-116 cells assessed as necrotic cells at 1 uM incubated for 24 hrs by Annexin V-FITC/PI staining based flow cytometry analysis (reference value: 0.00%); type: functional
PANC-1 = test: Antiproliferative activity against human PANC-1 cells assessed as inhibition of cell growth by MTT assay; type: functional, cell-based
HCT-116 [7] = test: Induction of cell cycle arrest in human HCT-116 assessed as decrease in G0/G1 phase cells at 1 uM incubated for 48 hrs by flow cytometric analysis (reference value: 63.51%); type: functional; design: scale not given: the % may be the effect or the level left
[8] = biological target: Histone deacetylase (Homo sapiens) (UniProt Q13547+O15379+Q9UBN7+Q92769+Q9UQL6+Q8WUI4+Q9BY41+Q96DB2+P56524+Q9UKV0+Q969S8); test: Inhibition of HDAC in human HCT-116 cells assessed as increase in alpha tubulin acetylation incubated for 24 hrs by Western blot analysis; type: cell-based; details: dose 0.5-1 µM
Histone deacetylase 4 = Histone deacetylase 4 (Homo sapiens, UniProt P56524); test: Inhibition of HDAC4 (unknown origin)
Histone deacetylase 4, sequence (P56524 whole entry): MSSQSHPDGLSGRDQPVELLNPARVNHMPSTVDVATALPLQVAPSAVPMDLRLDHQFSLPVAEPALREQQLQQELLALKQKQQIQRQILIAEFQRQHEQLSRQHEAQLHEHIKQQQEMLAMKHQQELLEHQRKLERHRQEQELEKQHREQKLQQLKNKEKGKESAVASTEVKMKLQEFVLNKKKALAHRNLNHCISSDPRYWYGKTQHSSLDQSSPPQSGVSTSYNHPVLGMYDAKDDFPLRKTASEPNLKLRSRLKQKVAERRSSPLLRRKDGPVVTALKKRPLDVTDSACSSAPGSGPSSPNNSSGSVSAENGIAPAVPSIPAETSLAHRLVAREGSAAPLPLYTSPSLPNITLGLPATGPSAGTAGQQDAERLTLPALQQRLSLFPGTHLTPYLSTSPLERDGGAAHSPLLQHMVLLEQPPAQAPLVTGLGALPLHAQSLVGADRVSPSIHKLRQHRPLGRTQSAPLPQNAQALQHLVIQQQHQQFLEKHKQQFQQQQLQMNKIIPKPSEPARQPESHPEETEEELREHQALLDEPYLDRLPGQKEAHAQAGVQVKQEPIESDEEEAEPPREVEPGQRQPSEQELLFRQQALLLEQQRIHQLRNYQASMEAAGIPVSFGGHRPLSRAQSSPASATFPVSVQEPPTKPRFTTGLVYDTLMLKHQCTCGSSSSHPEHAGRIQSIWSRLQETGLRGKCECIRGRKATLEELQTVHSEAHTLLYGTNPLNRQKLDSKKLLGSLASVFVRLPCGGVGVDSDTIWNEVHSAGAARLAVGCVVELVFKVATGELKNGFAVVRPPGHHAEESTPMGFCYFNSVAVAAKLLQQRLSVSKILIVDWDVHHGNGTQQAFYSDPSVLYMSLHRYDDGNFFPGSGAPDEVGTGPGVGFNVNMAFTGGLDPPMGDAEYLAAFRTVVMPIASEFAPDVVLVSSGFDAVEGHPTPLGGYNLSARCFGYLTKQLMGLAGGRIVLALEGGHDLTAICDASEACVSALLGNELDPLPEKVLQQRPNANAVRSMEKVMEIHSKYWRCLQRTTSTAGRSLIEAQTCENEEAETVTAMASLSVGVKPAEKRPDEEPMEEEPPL

HCT-116 [9] = test: Induction of apoptosis in human HCT-116 cells assessed as necrotic cells at 0.5 uM incubated for 24 hrs by Annexin V-FITC/PI staining based flow cytometry analysis (reference value: 0.00%); type: functional
HCT-116 [10] = test: Induction of apoptosis in human HCT-116 cells assessed as early apoptotic cells at 0.5 uM incubated for 24 hrs by Annexin V-FITC/PI staining based flow cytometry analysis (reference value: 6.50%); type: functional
MCF7 = test: Antiproliferative activity against human MCF7 cells assessed as inhibition of cell growth by MTT assay; type: functional, cell-based
Histone deacetylase 3 = Histone deacetylase 3 (Homo sapiens, UniProt O15379); test: Inhibition of HDAC3 (unknown origin)
Histone deacetylase 3, sequence (O15379 whole entry): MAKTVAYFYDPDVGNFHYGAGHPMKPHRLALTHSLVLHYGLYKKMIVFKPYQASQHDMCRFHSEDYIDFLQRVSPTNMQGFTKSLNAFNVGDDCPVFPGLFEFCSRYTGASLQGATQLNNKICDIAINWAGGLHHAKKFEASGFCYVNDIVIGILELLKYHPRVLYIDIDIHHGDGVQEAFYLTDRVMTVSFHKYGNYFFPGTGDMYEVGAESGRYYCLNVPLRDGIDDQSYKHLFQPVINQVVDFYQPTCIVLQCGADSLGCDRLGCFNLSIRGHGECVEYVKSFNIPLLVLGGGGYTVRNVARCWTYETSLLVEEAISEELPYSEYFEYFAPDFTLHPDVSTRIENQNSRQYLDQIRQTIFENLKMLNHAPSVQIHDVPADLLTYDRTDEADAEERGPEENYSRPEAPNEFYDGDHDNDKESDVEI

Histone deacetylase 11 = biological target: T2, Histone deacetylase 11 (Homo sapiens, UniProt Q96DB2); test: Inhibition of HDAC11 (unknown origin)
T2 sequence (Q96DB2 whole entry): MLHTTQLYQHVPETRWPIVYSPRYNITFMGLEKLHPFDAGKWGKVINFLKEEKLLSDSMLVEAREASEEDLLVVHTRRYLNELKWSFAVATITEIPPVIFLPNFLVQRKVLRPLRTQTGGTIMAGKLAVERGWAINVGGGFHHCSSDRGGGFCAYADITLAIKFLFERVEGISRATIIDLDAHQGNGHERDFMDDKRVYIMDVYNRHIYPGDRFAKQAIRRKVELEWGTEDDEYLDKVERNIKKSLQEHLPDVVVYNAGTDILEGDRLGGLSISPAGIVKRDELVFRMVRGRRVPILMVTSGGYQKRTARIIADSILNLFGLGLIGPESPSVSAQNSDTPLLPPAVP

HCT-116 [11] = test: Induction of cell cycle arrest in human HCT-116 assessed as increase in G2/M phase cells at 0.5 uM incubated for 48 hrs by flow cytometric analysis (reference value: 23.70%); type: functional
[12] = biological target: T1, DNA topoisomerase 1 (Homo sapiens); test: Inhibition of topoisomerase 1 in human HCT-116 cells assessed as suppression of Topo 1 protein expression incubated for 24 hrs by Western blot analysis; type: cell-based; details: dose 0.5-1 µM
HCT-116 [13] = test: Induction of cell cycle arrest in human HCT-116 assessed as decrease in G0/G1 phase cells at 0.5 uM incubated for 48 hrs by flow cytometric analysis (reference value: 63.51%); type: functional; design: scale not given: the % may be the effect or the level left
HCT-116 [14] = test: Induction of apoptosis in human HCT-116 cells assessed as activation of caspase pathway incubated for 24 hrs by Western blot analysis; type: functional, cell-based; details: dose 0.5-1 µM
HCT-116 [15] = test: Induction of apoptosis in human HCT-116 cells assessed as early apoptotic cells at 1 uM incubated for 24 hrs by Annexin V-FITC/PI staining based flow cytometry analysis (reference value: 6.50%); type: functional
HCT-116 [16] = test: Induction of ROS production in human HCT-116 cells by flow cytometric analysis; type: functional, cell-based; details: dose 0.5-1 µM
HCT-116 [17] = test: Induction of apoptosis in human HCT-116 cells assessed as late apoptotic cells at 1 uM incubated for 24 hrs by Annexin V-FITC/PI staining based flow cytometry analysis (reference value: 0.323%); type: functional
HCT-116 [18] = test: Induction of apoptosis in human HCT-116 cells assessed as total apoptotic cells at 1 uM incubated for 24 hrs by Annexin V-FITC/PI staining based flow cytometry analysis (reference value: 6.823%); type: functional

inhibition [2]: Active
IC50 (PANC-1): 1030 nM
inhibition [8]: Dose-Dependent Effect
IC50 (Histone deacetylase 4): 15.5 nM
IC50 (MCF7): 1270 nM
IC50 (Histone deacetylase 3): 15.5 nM
IC50 (Histone deacetylase 11): 110 nM
inhibition [12]: Dose-Dependent Effect
SMILES: O=C(CCCCCCNc1nc2ccccc2nc1-c1nc2ccccc2o1)NO
viability at 1 µM (HCT-116 [1]): 48.1%
Activity (HCT-116 [3]): 13.79%
Activity (HCT-116 [4]): 11.65%
Ratio IC50 (RS4-11): 2
inhibition (HCT-116 [5]): Dose-Dependent Effect
Activity (HCT-116 [6]): 0.103%
Activity (HCT-116 [7]): 46.57%
Activity (HCT-116 [9]): 0.241%
Activity (HCT-116 [10]): 28.1%
Activity (HCT-116 [11]): 36.67%
Activity (HCT-116 [13]): 51.68%
Activity (HCT-116 [14]): Dose-Dependent Effect
Activity (HCT-116 [15]): 34.5%
Activity (HCT-116 [16]): Dose-Dependent Effect
Activity (HCT-116 [17]): 17.3%
Activity (HCT-116 [18]): 51.8%
